Data on 7 compounds can be found in patent US20120319032A1, “Biodegradable, Frost Proof Heat-Transfer Fluid, Use Thereof In Near-Surface Geothermal Installations, And A Concentrate For Preparing Same” (priority 2010, published 2012).

Where two headings read alike, the source gives them in different places.

For series [1] the following is noted: OECD 301A, manufacturer safety data sheet, cited from earlier work.
The conditions of series [2]: shown in studies (Geothermics 36 (2007) 348 - 361); cited from earlier work.
The conditions of series [3]: 301D; 28 d; Research report 200 24 233 UBA-FB 000298; cited from earlier work.
The conditions of series [4]: 302B; 28 d; Research report 200 24 233 UBA-FB 000298; cited from earlier work.
For series [5] the following is noted: OECD 301B, manufacturer safety data sheet, cited from earlier work.
Series [6] in a line: Biodegradability, test method OECD 301 B. As to conditions: in-house measurement. As to the method: The biodegradability of the inventive composition and constituents thereof is determined according to the OECD Guidelines for Testing of Chemicals 301 and 311.
The corrosion inhibitor or, if more than one corrosion inhibitor is used, all corrosion inhibitors used have good biodegradability (are “readily degradable”) according to the respectively applicable test method OECD 301 A (for water-soluble corrosion inhibitors) or OECD 301 B (for sparingly water-soluble corrosion inhibitors), each in the version dated Jul. 17, 1992. Good biodegradability is defined in point 10 of OECD 301.

On to `CC(O)CO` (centres unmarked) [1,2-propylene glycol], for which the Degradability in series [1] (duration not given) was above 70%. Moreover, the Assessment of degradability entry in series [1] is “good”. Besides, the Biodegradability result in series [2] is “good”.
On to `c1ccc2[nH]nnc2c1` [Benzotriazole], for which the figures for the Degradability in series [3] and in series [4] were 0% (28 d) and 12% (28 d), respectively.
Consider `CC(C)CCCCCC(=O)O` [Inhibitor A, isononanoic acid], for which the Degradability result in series [5] (25 d) was “approx. 63%”. For the same compound, in series [5], the Assessment of degradability result is reported as “moderately”.
In the case of `CCCCC(CC)C(=O)O` (centres unmarked) [Inhibitor B, 2-ethylhexanoic acid], in series [5] (25 d), the Degradability result is “approx. 90%”. Also, the Assessment of degradability entry in series [5] was “good”.
Take `O=C(O)CCCCCCCCC(=O)O` [Inhibitor C, sebacic acid]: the Degradability in series [6] (25 d) is recorded as >80% (25 d). The Assessment of degradability entry in series [6] is given as “good”.
With `CC(C)CCCCCC(=O)NCCCCCC(=O)O` [Inhibitor X], the Degradability in series [5] (15 d) is recorded as >90% (15 d). The Assessment of degradability entry in series [5] is given as “good”.
For the compound `OCCO` [ethylene glycol], the Biodegradability entry in series [2] is on record as “good”.
